Measurements as given in article PMC10354055, “An optimized Nurr1 agonist provides disease-modifying effects in Parkinson’s disease models” (Nature Communications, 2023).
Several values for one entry are separate records, joined by “and”; a condition that tells them apart may be missing. Equal entries are not always repeated.

Columns and labels:
[1] = biological target: Nurr1-LBD (Homo sapiens, UniProt P43354); assay: TR-FRET competition assay with HCQFluo; assay type: binding; details: Fig. 1i
Chain of Nurr1-LBD (P43354 360-595 limits assumed, species assumed): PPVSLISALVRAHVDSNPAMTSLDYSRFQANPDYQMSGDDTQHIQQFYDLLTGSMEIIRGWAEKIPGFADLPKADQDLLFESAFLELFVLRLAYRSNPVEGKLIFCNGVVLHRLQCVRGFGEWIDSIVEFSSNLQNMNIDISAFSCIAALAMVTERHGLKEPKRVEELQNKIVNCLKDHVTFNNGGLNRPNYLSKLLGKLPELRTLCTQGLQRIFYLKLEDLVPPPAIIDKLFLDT
Description: TR-FRET assay was performed in PPI Terbium (Tb) detection buffer (PerkinElmer) and contained 0.2 µM of Nurr1-LBD, 0.5 µM of fluorescence-labeled hydroxy-CQ (HCQFluo; Proimaging) and serial concentrations of CQ, 4A7C-301 or RA (10^−4–10^6 nM). Rabbit anti-Nurr1 antibody (3 nM; prepared in our lab) and anti-rabbit IgG-Tb (1:400; Cisbio, 61PARTAF) were included in the assay solution as a donor complex. Assay solutions were loaded in a 384-well OptiPlate™ (PerkinElmer). After 2 h incubation in the dark at room temperature, the FRET signal was measured by excitation at 340 nm and emission at 520 nm for fluorescein and 495 nm for Tb using a VICTOR Nivo plate reader (PerkinElmer). Data were fit using the non-linear regression program in GraphPad Prism version 8.0.2.

[2] = system: N27-A cells; assay: Autophagolysosome (APL) formation assay, mRFP-GFP-LC3, N27-A cells; assay type: cell-based, rat; details: Figure 3b; mRFP-GFP-LC3; individual cells (30 per treatment)
Description: HeLa and N27-A cells were transfected with tandem mRFP-GFP-LC3 (Addgene) plasmid using Lipofectamine 2000 (Invitrogen) in 24-well plates. After 24 h, cells were incubated in starvation medium (Earle’s Balanced Salt Solution, EBSS; Lonza) containing bafilomycin A1 (BafA1, 10 nM), CQ (20 µM), or 4A7C-301 (1 µM) for 6 h and then fixed with 4% formaldehyde for fluorescence detection. Images were taken using a KEYENCE microscope and red (mRFP) LC3 dots and yellow (mRFP+GFP) LC3 dots were counted from three independent wells for each treatment group. 10 cells were randomly selected and counted from each well and a total of 30 cells were analyzed for each treatment group in both HeLa and N27-A cells.

[3] = system: Nurr1 protein; assay: Nurr1 protein level, Western blot, MN9D cells with MPP+ or αSyn overexpression; assay type: cell-based, mouse; details: for Relative Nurr1 expression (% of Cont.): Fig. S4g; for Relative Nurr1 expression (% of +GFP Basal): Fig. S4i
Description: Experiments were confirmed by duplicate measurements of the same sample. Quantification of immunoreactive bands was performed using ImageJ software (NIH, Bethesda, MD, USA) and expressed as a relative ratio against β-actin.
(§1) Lenti-GFP, -αSyn^WT, and -αSyn^A53T viruses were generated separately by co-transfecting each shuttle plasmid with lentivirus packaging plasmids into HEK293T cells using lipofectamine 2000 (Invitrogen). Briefly, 2 μg each FUW inducible shuttle plasmid, 2 μg FUW-rtTA, 2 μg psPax2 and 1.5 μg MD2.G were mixed and transfected into HEK293T cells. After 48 h, viral supernatants were collected and centrifuged at 1000g for 10 min, and subsequently filtered through a 0.45 μm filter. Lentiviruses were transduced into MN9D cells with 8 μg/ml of polybrene and the viral supernatant was removed and replaced with fresh medium a day after transduction.

[4] = system: MN9D cells; assay: Dopaminergic gene expression (TH, DAT, AADC, VMAT2, c-Ret), qRT-PCR, MN9D cells with MPP+; assay type: cell-based, mouse; details: for Relative TH mRNA expression (fold of Cont.): Fig. S5a; for Relative DAT mRNA expression (fold of Cont.): Fig. S5b; for Relative AADC mRNA expression (fold of Cont.): Fig. S5c; for Relative c-Ret mRNA expression (fold of Cont.): Fig. S5e; for Relative VMAT mRNA expression (fold of Cont.): Fig. S5d
Description: (§2) Total RNA was extracted using the GeneJET RNA Purification Kit (Thermo Fisher Scientific) and 100 ng of RNA was subjected to cDNA synthesis using Invitrogen Superscript cDNA Synthesis Kit (Invitrogen) according to the manufacturer’s protocol. qRT-PCR was performed using a CFX Connect Real-Time System (Bio-Rad) in a 20 μl volume mixture containing 2X SsoAdvanced Universal SYBR Green Supermix (Bio-Rad), 100 ng/μl of forward and reverse primers, and 1 μl of cDNA sample. Gene expression levels were quantified by the 2^∆∆CT method (Ct of target gene—Ct of glyceraldehyde-3-phosphate dehydrogenase (GAPDH). The following primers were used for qRT-PCR: TH forward: 5′-[…]-3′, reverse: 5′-[…]-3′; DAT forward: 5′-[…]-3′, reverse: 5′-[…]-3′; AADC forward: 5′-[…]-3′, reverse: 5′-[…]-3′; VMAT2 forward: 5′-[…]-3′, reverse: 5′-[…]-3′; c-Ret forward: 5′-[…]-3′, reverse: 5′-[…]-3′; TNFα forward: 5′-[…]-3′; reverse: 5′-[…]-3′; GAPDH, forward 5′-[…]-3′, reverse 5′-[…]-3′.

[5] = system: AAV-αSyn-induced male mice; assay: IHC/stereology of TH+ and NeuN+ neurons and TH+ fibers, AAV-αSyn-induced mice; assay type: in vivo, mouse
Text: Adeno-associated viruses (AAVs) expressing GFP only or αSyn (wild-type or A53T) were kindly provided by Dr. Yoon Seong Kim from the University of Central Florida. Recombinant AAV vectors were produced using modified pAAV-IRES-hrGFP (Agilent) to express wild-type and mutant human αSyn under control of the CMV promoter. Viral particles (AAV2) were produced at the University of Iowa Viral Vector Core according to standard operating procedures (https://medicine.uiowa.edu/vectorcore/). […] AAV vectors were delivered into the substantia nigra unilaterally by stereotaxic surgery.
Images were acquired using a KEYENCE microscope and quantified as the number or optical density of immunoreactive cells using ImageJ software.
The numbers of TH^+ DA neurons, NeuN^+ neurons, pS129 αSyn^+ cells in the SN and Iba-1^+ microglia in the SN and striatum were stereologically counted in six coronal sections (30 µm thickness) taken every 6th section (180 µm intervals) for each brain. The boundaries of the SN and striatum were delimited at low magnification (4X) to estimate each total area. Immunoreactive cells were counted with images taken at high magnification (×40) by a single blinded investigator. The group mean of the total number of immunoreactive cells from each brain was transformed as percentage of the number in the control group (%). For AAV-αSyn-induced mice, the group mean of the total number of cells in the ipsilateral side was transformed as a percentage of that observed in the contralateral side.

[6] = system: Nurr1 mRNA; assay: Nurr1 mRNA level, qRT-PCR, MN9D cells; assay type: cell-based, mouse; details: for Relative Nurr1 mRNA expression (fold of Cont.): Fig. S4f; for Relative Nurr1 mRNA expression (fold of +GFP Basal): Fig. S4h
Description: as §2, §1

CCN1CCN(c2cc(N3CCN(CC)CC3)nc(NCCNc3ccnc4cc(Cl)ccc34)n2)CC1 [4A7C-301, N^1-(4,6-bis(4-ethylpiperazin-1-yl)pyrimidin-2-yl)-N^2-(7-chloroquinolin-4-yl)ethane-1,2-diamine]
Interaction [HTRF] ([1]; 0.05 µM): 3265.9820 and 3537.6830 and 3401.8330 | Interaction [HTRF] ([1]; 0.1 µM): 3598.5100 and 3223.1060 and 3410.8080 | Interaction [HTRF] ([1]; 0.5 µM): 3591.7500 and 3214.1330 and 3402.9410 | Interaction [HTRF] ([1]; 1 µM): 2993.5610 and 3208.3240 and 3100.9430 | Interaction [HTRF] ([1]; 5 µM): 3661.8470 and 3369.4680 and 3515.6580 | Interaction [HTRF] ([1]; 10 µM): 3348.5030 and 3240.2560 and 3294.3790 | Interaction [HTRF] ([1]; 50 µM): 3293.1070 and 2930.3900 and 3111.7480 | Interaction [HTRF] ([1]; 100 µM): 3045.7890 and 3264.7900 and 3155.2890 | Interaction [HTRF] ([1]; 200 µM): 3424.3450 and 3220.2860 and 3322.3150 | IC50 ([1]; competition with HCQFluo): 108 nM and 100 nM | LC3 dots/cell, Red LC3 dots [2]: 22 dots/cell (5×) and 32 dots/cell and 15 dots/cell and 27 dots/cell (6×) and 21 dots/cell (4×) and 26 dots/cell (2×) and 34 dots/cell and 31 dots/cell (2×) and 19 dots/cell (3×) and 12 dots/cell and 17 dots/cell (2×) and 16 dots/cell and 20 dots/cell | LC3 dots/cell, Yellow LC3 dots [2]: 9 dots/cell (2×) and 10 dots/cell (3×) and 16 dots/cell (2×) and 11 dots/cell (4×) and 20 dots/cell (2×) and 3 dots/cell (2×) and 4 dots/cell (2×) and 5 dots/cell (3×) and 15 dots/cell and 17 dots/cell and 14 dots/cell (3×) and 6 dots/cell (2×) and 7 dots/cell and 2 dots/cell and 12 dots/cell | Relative Nurr1 expression (% of Cont.) ([3]; w/ MPP+): 99.091 % of Cont. and 100.486 % of Cont. and 100.693 % of Cont. | Relative Nurr1 expression (% of Cont.) ([3]; w/o MPP+): 101.351 % of Cont. and 99.92 % of Cont. and 104.55 % of Cont. | Relative Nurr1 expression (% of +GFP Basal) ([3]; + GFP): 98.029 % of +GFP Basal and 101.483 % of +GFP Basal and 98.211 % of +GFP Basal | Relative Nurr1 expression (% of +GFP Basal) ([3]; + αSynA53T): 84.572 % of +GFP Basal and 86.142 % of +GFP Basal and 86.409 % of +GFP Basal | Relative Nurr1 expression (% of +GFP Basal) ([3]; + αSynWT): 92.781 % of +GFP Basal and 95.357 % of +GFP Basal and 90.953 % of +GFP Basal | Nurr1 protein levels (in words) ([3]; against MPP+ and αSynWT overexpression): significantly restored | Nurr1 protein levels (in words) ([3]; against αSynA53T overexpression): maintained | Relative TH mRNA expression (fold of Cont.) ([4]; w/ MPP+): 1.331 fold of Cont. and 1.238 fold of Cont. and 1.4297 fold of Cont. | Relative TH mRNA expression (fold of Cont.) ([4]; w/o MPP+): 2.626 fold of Cont. and 3.055 fold of Cont. and 2.8325 fold of Cont. | Relative DAT mRNA expression (fold of Cont.) ([4]; w/ MPP+): 1.51 fold of Cont. and 1.43 fold of Cont. and 1.594 fold of Cont. | Relative DAT mRNA expression (fold of Cont.) ([4]; w/o MPP+): 3.527 fold of Cont. and 3.949 fold of Cont. and 3.732 fold of Cont. | Relative AADC mRNA expression (fold of Cont.) ([4]; w/ MPP+): 1.175 fold of Cont. and 1.144 fold of Cont. and 1.206 fold of Cont. | Relative AADC mRNA expression (fold of Cont.) ([4]; w/o MPP+): 1.767 fold of Cont. and 1.615 fold of Cont. and 1.689 fold of Cont. | Relative c-Ret mRNA expression (fold of Cont.) ([4]; w/ MPP+): 0.9952 fold of Cont. and 1.121 fold of Cont. and 0.8833 fold of Cont. | Relative c-Ret mRNA expression (fold of Cont.) ([4]; w/o MPP+): 1.827 fold of Cont. and 2.268 fold of Cont. and 2.036 fold of Cont. | Relative VMAT mRNA expression (fold of Cont.) ([4]; w/ MPP+): 1.0229 fold of Cont. and 0.9814 fold of Cont. and 1.066 fold of Cont. | Relative VMAT mRNA expression (fold of Cont.) ([4]; w/o MPP+): 2.085 fold of Cont. and 1.956 fold of Cont. and 2.019 fold of Cont. | dopaminergic gene expression (in words) ([4]; MN9D, decreased by MPP+): significantly rescued | concentration for similar effect, times lower than CQ ([4]; dopaminergic gene expression, MN9D and VM primary cells): 20–40 times | loss of TH+ and NeuN+ neurons and fibers (in words) ([5]; αSynA53T-mice): significantly prevented | loss of TH+ and NeuN+ neurons and TH+ fibers (in words) ([5]; αSynWT-mice): partially prevented | Relative Nurr1 mRNA expression (fold of Cont.) ([6]; w/ MPP+): 0.4287 fold of Cont. and 0.414 fold of Cont. and 0.4438 fold of Cont. | Relative Nurr1 mRNA expression (fold of Cont.) ([6]; w/o MPP+): 1.004 fold of Cont. and 0.9452 fold of Cont. and 0.974 fold of Cont. | Relative Nurr1 mRNA expression (fold of +GFP Basal) ([6]; + GFP): 1.067 fold of +GFP Basal and 0.9407 fold of +GFP Basal and 1.002 fold of +GFP Basal | Relative Nurr1 mRNA expression (fold of +GFP Basal) ([6]; + αSynA53T): 0.5837 fold of +GFP Basal and 0.5113 fold of +GFP Basal and 0.5463 fold of +GFP Basal | Relative Nurr1 mRNA expression (fold of +GFP Basal) ([6]; + αSynWT): 0.7154 fold of +GFP Basal and 0.8045 fold of +GFP Basal and 0.7587 fold of +GFP Basal | Nurr1 mRNA levels (in words) ([6]; MPP+ or αSyn overexpression): did not alter
